These results are taken from patent US9180164B2, “Compounds and methods of modulating angiogenesis” (THE CLEVELAND CLINIC FOUNDATION, priority 2011, dated 2015).

Where no end group is shown, it is not given here. [ ]: non-standard residue; d: D form. Gla = N[C@@H](CC(C(=O)O)C(=O)O)C(=O)O

Experiment [1] deals with T1, αvβ3 integrin (Mus musculus, UniProt O54890+P43406).
T1 construct: endogenous in cells; host or cells: primary mouse lung endothelial cells
T1 sequence (O54890 26-787): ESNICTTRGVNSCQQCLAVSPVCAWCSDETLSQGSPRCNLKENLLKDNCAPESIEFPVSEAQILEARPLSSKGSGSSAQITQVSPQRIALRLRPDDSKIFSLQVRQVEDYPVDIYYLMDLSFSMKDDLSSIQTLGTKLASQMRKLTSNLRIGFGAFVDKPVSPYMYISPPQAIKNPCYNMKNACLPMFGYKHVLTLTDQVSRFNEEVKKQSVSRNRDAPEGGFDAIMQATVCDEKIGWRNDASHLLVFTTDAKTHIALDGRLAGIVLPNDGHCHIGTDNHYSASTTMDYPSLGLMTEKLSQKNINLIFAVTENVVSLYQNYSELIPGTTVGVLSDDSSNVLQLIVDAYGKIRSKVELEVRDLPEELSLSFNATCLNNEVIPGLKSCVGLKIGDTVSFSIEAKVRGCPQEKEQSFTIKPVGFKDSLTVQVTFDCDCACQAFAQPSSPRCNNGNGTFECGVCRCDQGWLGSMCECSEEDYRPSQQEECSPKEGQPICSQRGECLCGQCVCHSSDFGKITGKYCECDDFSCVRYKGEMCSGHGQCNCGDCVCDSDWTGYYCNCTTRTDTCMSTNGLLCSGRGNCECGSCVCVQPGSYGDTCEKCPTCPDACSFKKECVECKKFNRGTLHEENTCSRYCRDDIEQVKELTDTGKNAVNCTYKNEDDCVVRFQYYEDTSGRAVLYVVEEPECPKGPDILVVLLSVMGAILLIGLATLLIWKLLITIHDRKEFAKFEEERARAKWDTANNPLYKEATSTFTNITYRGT
T1 sequence (P43406 31-885 limits assumed): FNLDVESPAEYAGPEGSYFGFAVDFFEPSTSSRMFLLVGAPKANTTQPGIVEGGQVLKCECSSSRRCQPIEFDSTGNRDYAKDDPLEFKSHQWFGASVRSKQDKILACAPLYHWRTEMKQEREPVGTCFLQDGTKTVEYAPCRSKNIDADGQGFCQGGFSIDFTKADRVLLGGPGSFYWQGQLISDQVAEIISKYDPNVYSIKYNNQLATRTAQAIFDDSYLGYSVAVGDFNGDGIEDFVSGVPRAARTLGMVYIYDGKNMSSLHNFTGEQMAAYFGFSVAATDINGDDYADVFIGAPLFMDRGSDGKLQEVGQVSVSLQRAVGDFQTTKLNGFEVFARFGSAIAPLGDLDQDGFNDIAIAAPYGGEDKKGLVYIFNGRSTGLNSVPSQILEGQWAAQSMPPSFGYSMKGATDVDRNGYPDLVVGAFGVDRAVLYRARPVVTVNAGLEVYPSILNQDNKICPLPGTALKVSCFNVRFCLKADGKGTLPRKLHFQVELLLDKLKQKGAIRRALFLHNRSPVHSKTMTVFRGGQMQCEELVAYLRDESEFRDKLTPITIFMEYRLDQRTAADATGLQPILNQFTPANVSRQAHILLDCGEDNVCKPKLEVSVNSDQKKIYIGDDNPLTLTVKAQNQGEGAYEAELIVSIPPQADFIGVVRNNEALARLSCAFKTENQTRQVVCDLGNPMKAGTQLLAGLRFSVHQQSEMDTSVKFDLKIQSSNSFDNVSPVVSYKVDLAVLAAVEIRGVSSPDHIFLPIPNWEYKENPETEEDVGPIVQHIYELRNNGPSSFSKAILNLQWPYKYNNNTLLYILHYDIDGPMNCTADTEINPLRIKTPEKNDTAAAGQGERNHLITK
T1 sequence (P43406 887-1044 limits assumed): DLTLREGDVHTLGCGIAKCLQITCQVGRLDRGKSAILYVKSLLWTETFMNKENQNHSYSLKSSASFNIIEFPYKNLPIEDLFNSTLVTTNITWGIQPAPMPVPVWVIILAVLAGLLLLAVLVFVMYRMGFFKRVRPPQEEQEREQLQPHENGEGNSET
Briefly: WOW-1 binding assay, mouse lung endothelial cells. In kind it is cell-based. The note with it: WT EC; 20 ng/ml VEGF or 1 mM MnCl2. The method, then: (§1) Wild type and DiYF mouse lung endothelial cells were serum starved for 4 h and further stimulated with 20 ng/ml VEGF-165, 20 ng/ml b-FGF or 1 mm MnC12 separately. WoW-1 Fab was added at a final concentration of […], followed by addition of Fluorescein isothiocyanate (FITC) conjugated goat anti-mouse IgG at 10 μg/ml. After 30 min cells were fixed with 3.7% formaldehyde/PBS for 15 min, washed twice with 1×PBS and FACS was performed using a FACS Calibur (Becton Dickinson, San Jose, Calif.) instrument and data were analyzed using CellQuest software program.

Experiment [2] deals with αvβ3 integrin. Briefly: WOW-1 binding assay, mouse lung endothelial cells. It is filed as cell-based. The note with it: DiYF EC; 20 ng/ml VEGF or 1 mM MnCl2. The method, then: as §1
Experiment [3] has as its target T1, αvβ3 integrin. Briefly: Fibrinogen binding assay (FACS). The note with it: WT EC; 20 ng/ml VEGF or 1 mM MnCl2. In kind it is cell-based. The protocol:
(§2) To assess fibrinogen binding, semiconfluent wild type and DiYF mouse lung endothelial cells were serum starved for 4 h and further induced with 20 ng/ml VEGF-165, 20 ng/ml b-FGF or 1 mm MnC12. Fluorescein isothiocyanate (FITC)-labeled fibrinogen was added at a final concentration of 200 nM for 45 min. […] Fluorescence-activated cell sorting (FACS) was performed using a FACS Calibur (Becton Dickinson, San Jose, Calif.) and data were analyzed using CellQuest software program.

The subject of experiment [4] is αvβ3 integrin. The experiment in a line: Fibrinogen binding assay (FACS). The note with it: DiYF EC; 20 ng/ml VEGF or 1 mM MnCl2. In kind it is cell-based, mouse. The protocol: as §2
In experiment [5] the test system is human melanoma cells (WM-164). Briefly: Apoptosis in melanoma cells. In kind it is cell-based. The settings on record: 100 μM. The method, then:
To the examine the effect of beta-3 integrin cytoplasmic domain inhibitory peptides on tumor progressino we treated human melanoma cells (WM-164) with either 100 μM of control peptide or with equal amount of inhibiting peptide 07-240 (HIV-TAT-(NPLXK) (SEQ ID NO: 7)), inhibiting peptide 07-241 (HIV-TAT-(NPLDK) (SEQ ID NO: 9)), inhibiting peptide 07-243 (HIV-TAT-(NITXR) (SEQ ID NO: 8)), and inhibiting peptide 07-244 (HIV-TAT-(NITDR) (SEQ ID NO: 10)), where X is γ-carboxyglutamic acid.

The subject of experiment [6] is WT mouse aortic rings. The experiment in a line: Mouse aortic ring angiogenesis. It is filed as cell-based. The settings on record: 50 μM, in the presence of VEGF, 1 week. The protocol: Thoracic aortas from WT and DiYF mice were removed under aseptic conditions and spliced into 1 mm thick rings. Thoracic aortic rings were placed between two layers of growth factor depleted Matrigel and allowed to solidify at room temperature. Matrigels were overlaid with either with DMEM or endothelial growth medium with or without VEGF (40 ng/ml). Microvessel outgrowth was visualized by phase contrast microscopy and numbers of vessels growing from each aortic ring were counted and photographed every two days using Leica phase contrast microscope.
To examine the effect of cyclic inhibiting peptides on mouse aortic ring angiogensis, thoracic aortas from WT mice were removed under aseptic conditions and spliced into 1 mm thick rings. Thoracic aortic rings were placed between two layers of growth factor depleted Matrigel and allowed to solidify at room temperature. Matrigels were administered VEGF and 50 μM control peptides or with equal amounts of inhibiting peptide 1 (RR cyclic (NPLXK) (SEQ ID NO: 39), disulfide bridge cycle), inhibiting peptide 2 (RR cyclic (NITXR) (SEQ ID NO: 40), disulfide bridge cycle), inhibiting peptide 3 (RRRKKRKRRR cyclic (NPLXK) (SEQ ID NO: 41), disulfide bridge cycle), and inhibiting peptide 4 (RRRKKRKRRR cyclic (NITXR) (SEQ ID NO: 42), disulfide bridge cycle), where X is γ-carboxyglutamic acid. Microvessel outgrowth was visualized by phase contrast microscopy and numbers of vessels growing from each aortic ring were counted and photographed every two days using Leica phase contrast microscope after 1 week.

The subject of experiment [7] is subcutaneously implanted tumors. The experiment in a line: Progression of subcutaneously implanted tumors. In kind it is in vivo, mice. The note with it: 100 μM. The method, then:
To the examine the effect of beta-3 integrin cytoplasmic domain inhibitory peptides on tumor progressino we subcutaneously implanted tumors in mice and then treated the mice with either 100 μM of control peptide or with equal amount of inhibiting peptide 1 (RR cyclic (NPLXK) (SEQ ID NO: 7), disulfide bridge cycle), inhibiting peptide 2 (RR cyclic (NITXR) (SEQ ID NO: 8), disulfide bridge cycle), inhibiting peptide 3 ([…] cyclic (NPLXK) (SEQ ID NO: 7), disulfide bridge cycle), inhibiting peptide 4 ([…] cyclic (NITXR) (SEQ ID NO: 8), disulfide bridge cycle), inhibiting peptide 5 (RR linear (NPLXK) (SEQ ID NO: 7)); and inhibiting peptide 6 (RR linear (NITXR) (SEQ ID NO: 8)), where X is γ-carboxyglutamic acid.

Regarding `[Cl][Mn][Cl]` [MnCl2], the “increase in WOW-1 binding” value came to 30 fold in experiment [1] and 14 fold in experiment [2]. The figures for the “increase of fibrinogen binding” value in experiment [3] and in experiment [4] were “at least 40 fold” and 17 fold, respectively.

Turning to “HIV-TAT-(NITDR) (listed as Homo sapiens) [07-244]”, in experiment [5], the “apoptosis in melanoma cells compared to a control” value (“apoptosis … compared to a control” for short) is “induced apoptosis”.

As for “HIV-TAT-(NITXR) ({HIV‑TAT}-NIT[Gla]R; not fully specified; printed as HIV-TAT-(NITXR); listed as Homo sapiens) [07-243, X is γ-carboxyglutamic acid]”, the “apoptosis … compared to a control” value in experiment [5] was “induced apoptosis”.

Consider “HIV-TAT-(NPLDK) (listed as Homo sapiens) [07-241]”, for which, in experiment [5], the “apoptosis … compared to a control” value was “induced apoptosis”. The same measure, in the same setting: the value for “HIV-TAT-(NPLXK) ({HIV‑TAT}-NPL[Gla]K; not fully specified; printed as HIV-TAT-(NPLXK); listed as Homo sapiens) [07-240, X is γ-carboxyglutamic acid]” was “induced apoptosis”. Regarding “RR cyclic (NITXR) (RRNIT[Gla]R; disulfide (positions not given here); not fully specified; printed as RR cyclic (NITXR); also: cyclic, closure not given here; listed as Homo sapiens) [inhibiting peptide 2, X is γ-carboxyglutamic acid]”, in experiment [6], the “angiogenesis of the mouse aortic rings (microvessel outgrowth)” value (from here on “angiogenesis of the mouse aortic rings”) was “inhibited angiogenesis”. Also, the “tumor progression compared to a control” value in experiment [7] is “substantially reduced tumor progression”. The like results for “RR cyclic (NPLXK) (RRNPL[Gla]K; disulfide (positions not given here); also: NPLXK part cyclic via disulfide bridge, no Cys in given letters; listed as Homo sapiens) [inhibiting peptide 1, X is γ-carboxyglutamic acid]” were, in that order, “inhibited angiogenesis” and “substantially reduced tumor progression”. In the case of “RR linear (NITXR) (RRNIT[Gla]R; listed as Homo sapiens) [inhibiting peptide 6, X is γ-carboxyglutamic acid]”, the “tumor progression compared to a control” value in experiment [7] is “substantially reduced tumor progression”.

Consider “RRRKKRKRRR cyclic (NITXR) (RRRKKRKRRRNIT[Gla]R; disulfide (positions not given here); not fully specified; also: cyclic, closure not given here; listed as Homo sapiens) [inhibiting peptide 4, X is γ-carboxyglutamic acid]”, for which the “angiogenesis of the mouse aortic rings” value in experiment [6] is given as “inhibited angiogenesis”. Besides, the “tumor progression compared to a control” value in experiment [7] is “substantially reduced tumor progression”. For “RRRKKRKRRR cyclic (NPLXK) (RRRKKRKRRRNPL[Gla]K; disulfide (positions not given here); not fully specified; listed as Homo sapiens) [inhibiting peptide 3, X is γ-carboxyglutamic acid]”, the “angiogenesis of the mouse aortic rings” value in experiment [6] is listed as “inhibited angiogenesis”. For the same molecule, the “tumor progression compared to a control” value in experiment [7] is “substantially reduced tumor progression”.
